Assay: Iron-chelating activity after 4 hrs by CAS assay
Format: functional

SMILES | ED50
CC(C)CC(=O)N(O)CCCCCNC(=O)CCC(=O)N(O)CCCCCNC(=O)CCC(=O)N(O)CCCCCN | 115 µM
CC(C)CC(=O)N(O)CCCCCNC(=O)CCC(=O)O | > 1000 µM
CC(C)CC(=O)N(O)CCCCCNC(=O)CCC(=O)N(O)CCCCCNC(=O)CCC(=O)O | 110 µM
COC(=O)CCC(=O)NCCCCCN(O)C(=O)CC(C)C | > 1000 µM
CC(=O)N(O)CCCCCNC(=O)CCC(=O)N(O)CCCCCNC(=O)CCC(=O)N(O)CCCCCN | 120 µM
